Test results from ChEMBL document CHEMBL1140489, “New biologically active epidioxysterols from Stereum hirsutum” (2007).
Converted amounts (≈) assume the structure as drawn.

Columns and labels:
Type in all cases: functional
[1] = test system: Mycobacterium tuberculosis; experiment: Antibacterial activity against Mycobacterium tuberculosis H37Rv by microdilution resazurin assay
Pseudomonas aeruginosa = experiment: Antibacterial activity against Pseudomonas aeruginosa ATCC 27753
Escherichia coli = experiment: Antibacterial activity against Escherichia coli ATCC […]
Candida = experiment: Antifungal activity against Candida sp.
Staphylococcus aureus = experiment: Antibacterial activity against staphylococcus aureus ATCC 25923

| Structure (SMILES) | MIC [1] | MIC (Pseudomonas aeruginosa) | MIC (Escherichia coli) | MIC (Candida) | MIC (Staphylococcus aureus) |
| --- | --- | --- | --- | --- | --- |
| CC(C)C/C=C/[C@@H](C)[C@H]1CC[C@@H]2[C@]1(C)CC=C1[C@]23C=C[C@]2(C[C@@H](O)CC[C@]12C)OO3 | 16 mg/L (≈ 38.8 µM) | > 512 mg/L | > 512 mg/L | > 512 mg/L | > 512 mg/L |
| Cn1c([N+](=O)[O-])cnc1C#Cc1ccnc(N)n1 | 16 mg/L (≈ 65.5 µM) | > 512 mg/L | > 512 mg/L | > 512 mg/L | > 512 mg/L |
| CC(C)[C@@H](C)/C=C/[C@@H](C)[C@H]1CC[C@@H]2[C@]1(C)CC[C@H]1[C@]23C=C[C@]2(C[C@@H](O)CC[C@]12C)OO3 [ERGOSTEROL PEROXIDE] | 64 mg/L (≈ 149 µM) | > 512 mg/L | > 512 mg/L | > 512 mg/L | > 512 mg/L |
| O=C(O)c1cn(C2CC2)c2cc(N3CCNCC3)c(F)cc2c1=O [CIPROFLOXACIN] | 0.5 mg/L (≈ 1.51 µM) | 1 mg/L (≈ 3.02 µM) | – | – | 0.5 mg/L (≈ 1.51 µM) |
| CC(C)[C@@H](C)/C=C/[C@@H](C)[C@H]1CC[C@@H]2[C@]1(C)CC=C1[C@]23C=C[C@]2(C[C@@H](O)CC[C@]12C)OO3 | 16 mg/L (≈ 37.5 µM) | > 512 mg/L | > 512 mg/L | > 512 mg/L | > 512 mg/L |
| Clc1ccc(COC(Cn2ccnc2)c2ccc(Cl)cc2Cl)c(Cl)c1 (centres undefined) [MICONAZOLE] | – | – | – | 0.25 mg/L (≈ 0.601 µM) | – |
| CC[C@@H](/C=C/[C@@H](C)[C@H]1CC[C@@H]2[C@]1(C)CC[C@H]1[C@]23C=C[C@]2(C[C@@H](O)CC[C@]12C)OO3)C(C)C | 64 mg/L (≈ 145 µM) | > 512 mg/L | > 512 mg/L | > 512 mg/L | > 512 mg/L |
